Activity calls are given as the source filed them.
Experiments:
Melanocortin receptor 4 = Melanocortin receptor 4 (Homo sapiens, UniProt P32245); test: MC4R antagonist potency on cAMP, dose response, cell-based, TR-FRET, biased antagonists (AID 602298); assay type: functional;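 note: antagonist potency against agonist-stimulated cAMP production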
[1] = molecular target: T1, High affinity choline transporter 1 (Homo sapiens, UniProt Q9GZV3); test: CHT inhibitors, dose response, cell-based, 5-point CRC, membrane potential dye (AID 504840); assay type: functional
T1 sequence (Q9GZV3 whole entry): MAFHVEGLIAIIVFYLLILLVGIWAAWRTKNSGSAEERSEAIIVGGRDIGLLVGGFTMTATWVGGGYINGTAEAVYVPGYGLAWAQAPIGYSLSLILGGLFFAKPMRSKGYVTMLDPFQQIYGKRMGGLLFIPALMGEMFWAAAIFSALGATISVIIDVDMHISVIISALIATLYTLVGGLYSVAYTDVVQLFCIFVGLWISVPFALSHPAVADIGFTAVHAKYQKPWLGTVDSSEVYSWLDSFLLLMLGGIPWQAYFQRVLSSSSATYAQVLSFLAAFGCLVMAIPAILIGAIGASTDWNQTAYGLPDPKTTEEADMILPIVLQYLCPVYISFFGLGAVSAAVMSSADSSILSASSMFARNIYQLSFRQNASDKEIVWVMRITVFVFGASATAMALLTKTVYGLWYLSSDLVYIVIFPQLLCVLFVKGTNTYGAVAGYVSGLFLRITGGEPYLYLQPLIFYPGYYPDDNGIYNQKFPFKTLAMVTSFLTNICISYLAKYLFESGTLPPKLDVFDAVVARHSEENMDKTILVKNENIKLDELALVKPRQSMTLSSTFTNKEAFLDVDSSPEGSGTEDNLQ

[2] = molecular target: T1, High affinity choline transporter 1; test: CHT inhibitors, dose response, cell-based, 10-point CRC, membrane potential dye (AID 588401); assay type: functional;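 note: membrane potential dye fluorescence of choline-evoked depolarization via CHT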
[3] = molecular target: T1, High affinity choline transporter 1; test: inhibitors of CHT choline uptake, dose response, cell-based, 3H-choline uptake, CHT LV-AA trafficking mutant, CRC (AID 602208); assay type: functional
Interleukin-8 = molecular target: T2, Interleukin-8 (Homo sapiens, UniProt P10145); test: Dose Response confirmation of uHTS small molecule hits for cystic fibrosis induced NFkb Inhibitors in a PAF-induced IL8 counterscreen.; assay type: functional; conditions: read-out: IC50_Mean
T2 sequence (P10145 whole entry): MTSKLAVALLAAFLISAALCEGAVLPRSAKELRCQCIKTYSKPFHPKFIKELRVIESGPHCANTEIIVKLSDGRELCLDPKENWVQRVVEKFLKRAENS

[4] = Vero cell cytotoxicity, cytotoxicity control for M. tuberculosis inhibitor project, purified and synthesized samples, set 3 (AID 504684); assay type: functional
[5] = THP-1 cell cytotoxicity, cytotoxicity control, set 4 (AID 504911); assay type: functional; conditions: Mycobacterium tuberculosis
[6] = molecular target: T3, Neuropeptides B/W receptor type 1 (Homo sapiens, UniProt P48145); test: GPR7 antagonist potency, late-stage follow-up, cell-based, fluorescence, dose response, set 5 (AID 588566); assay type: functional
T3 sequence (P48145 whole entry): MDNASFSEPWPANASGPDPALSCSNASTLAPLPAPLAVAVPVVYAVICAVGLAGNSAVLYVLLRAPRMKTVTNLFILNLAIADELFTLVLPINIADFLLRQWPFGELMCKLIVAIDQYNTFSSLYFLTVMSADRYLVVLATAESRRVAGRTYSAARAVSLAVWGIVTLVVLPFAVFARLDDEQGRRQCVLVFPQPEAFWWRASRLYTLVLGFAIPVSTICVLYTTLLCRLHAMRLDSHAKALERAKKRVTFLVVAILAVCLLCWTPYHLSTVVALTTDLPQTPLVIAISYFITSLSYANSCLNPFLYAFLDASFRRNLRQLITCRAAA

[7] = molecular target: Melanin-concentrating hormone receptor 1 (Homo sapiens, UniProt Q99705); test: Late-stage fluorescence-based counterscreen for antagonists of the G-protein coupled receptor 7 (GPR7): cell-based dose response assay to identify antagonists of the melanin-concentrating hormone receptor 1 (MCHR1) Set 5.; assay type: functional
Chain of Melanin-concentrating hormone receptor 1 (Q99705 whole entry): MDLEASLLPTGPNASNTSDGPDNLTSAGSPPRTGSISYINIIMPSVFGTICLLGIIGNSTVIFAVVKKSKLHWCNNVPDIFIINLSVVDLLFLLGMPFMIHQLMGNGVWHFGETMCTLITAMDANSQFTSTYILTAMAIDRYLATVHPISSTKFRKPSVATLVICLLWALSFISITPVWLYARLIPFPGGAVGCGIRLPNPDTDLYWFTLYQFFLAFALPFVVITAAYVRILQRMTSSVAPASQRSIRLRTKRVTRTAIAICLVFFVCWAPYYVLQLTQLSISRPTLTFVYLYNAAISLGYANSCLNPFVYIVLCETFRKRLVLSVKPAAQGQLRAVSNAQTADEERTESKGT

[8] = nonselective inhibitors of cellular cAMP signaling, dose response, counter-screen for MC4R biased antagonist project, cell-based, TR-FRET cAMP detection (AID 602305); assay type: functional;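 note: U2OS cells stimulated with forskolin near its EC80 as the cAMP inducer; potency is for inhibition of forskolin-stimulated cAMP signaling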
[9] = molecular target: T4, Voltage-gated N-type calcium channel alpha-1B subunit/Amyloid beta A4 precursor protein-binding family A member 1 (Homo sapiens, UniProt Q00975+Q02410); assay type: protein assay
T4 sequence (Q00975 whole entry): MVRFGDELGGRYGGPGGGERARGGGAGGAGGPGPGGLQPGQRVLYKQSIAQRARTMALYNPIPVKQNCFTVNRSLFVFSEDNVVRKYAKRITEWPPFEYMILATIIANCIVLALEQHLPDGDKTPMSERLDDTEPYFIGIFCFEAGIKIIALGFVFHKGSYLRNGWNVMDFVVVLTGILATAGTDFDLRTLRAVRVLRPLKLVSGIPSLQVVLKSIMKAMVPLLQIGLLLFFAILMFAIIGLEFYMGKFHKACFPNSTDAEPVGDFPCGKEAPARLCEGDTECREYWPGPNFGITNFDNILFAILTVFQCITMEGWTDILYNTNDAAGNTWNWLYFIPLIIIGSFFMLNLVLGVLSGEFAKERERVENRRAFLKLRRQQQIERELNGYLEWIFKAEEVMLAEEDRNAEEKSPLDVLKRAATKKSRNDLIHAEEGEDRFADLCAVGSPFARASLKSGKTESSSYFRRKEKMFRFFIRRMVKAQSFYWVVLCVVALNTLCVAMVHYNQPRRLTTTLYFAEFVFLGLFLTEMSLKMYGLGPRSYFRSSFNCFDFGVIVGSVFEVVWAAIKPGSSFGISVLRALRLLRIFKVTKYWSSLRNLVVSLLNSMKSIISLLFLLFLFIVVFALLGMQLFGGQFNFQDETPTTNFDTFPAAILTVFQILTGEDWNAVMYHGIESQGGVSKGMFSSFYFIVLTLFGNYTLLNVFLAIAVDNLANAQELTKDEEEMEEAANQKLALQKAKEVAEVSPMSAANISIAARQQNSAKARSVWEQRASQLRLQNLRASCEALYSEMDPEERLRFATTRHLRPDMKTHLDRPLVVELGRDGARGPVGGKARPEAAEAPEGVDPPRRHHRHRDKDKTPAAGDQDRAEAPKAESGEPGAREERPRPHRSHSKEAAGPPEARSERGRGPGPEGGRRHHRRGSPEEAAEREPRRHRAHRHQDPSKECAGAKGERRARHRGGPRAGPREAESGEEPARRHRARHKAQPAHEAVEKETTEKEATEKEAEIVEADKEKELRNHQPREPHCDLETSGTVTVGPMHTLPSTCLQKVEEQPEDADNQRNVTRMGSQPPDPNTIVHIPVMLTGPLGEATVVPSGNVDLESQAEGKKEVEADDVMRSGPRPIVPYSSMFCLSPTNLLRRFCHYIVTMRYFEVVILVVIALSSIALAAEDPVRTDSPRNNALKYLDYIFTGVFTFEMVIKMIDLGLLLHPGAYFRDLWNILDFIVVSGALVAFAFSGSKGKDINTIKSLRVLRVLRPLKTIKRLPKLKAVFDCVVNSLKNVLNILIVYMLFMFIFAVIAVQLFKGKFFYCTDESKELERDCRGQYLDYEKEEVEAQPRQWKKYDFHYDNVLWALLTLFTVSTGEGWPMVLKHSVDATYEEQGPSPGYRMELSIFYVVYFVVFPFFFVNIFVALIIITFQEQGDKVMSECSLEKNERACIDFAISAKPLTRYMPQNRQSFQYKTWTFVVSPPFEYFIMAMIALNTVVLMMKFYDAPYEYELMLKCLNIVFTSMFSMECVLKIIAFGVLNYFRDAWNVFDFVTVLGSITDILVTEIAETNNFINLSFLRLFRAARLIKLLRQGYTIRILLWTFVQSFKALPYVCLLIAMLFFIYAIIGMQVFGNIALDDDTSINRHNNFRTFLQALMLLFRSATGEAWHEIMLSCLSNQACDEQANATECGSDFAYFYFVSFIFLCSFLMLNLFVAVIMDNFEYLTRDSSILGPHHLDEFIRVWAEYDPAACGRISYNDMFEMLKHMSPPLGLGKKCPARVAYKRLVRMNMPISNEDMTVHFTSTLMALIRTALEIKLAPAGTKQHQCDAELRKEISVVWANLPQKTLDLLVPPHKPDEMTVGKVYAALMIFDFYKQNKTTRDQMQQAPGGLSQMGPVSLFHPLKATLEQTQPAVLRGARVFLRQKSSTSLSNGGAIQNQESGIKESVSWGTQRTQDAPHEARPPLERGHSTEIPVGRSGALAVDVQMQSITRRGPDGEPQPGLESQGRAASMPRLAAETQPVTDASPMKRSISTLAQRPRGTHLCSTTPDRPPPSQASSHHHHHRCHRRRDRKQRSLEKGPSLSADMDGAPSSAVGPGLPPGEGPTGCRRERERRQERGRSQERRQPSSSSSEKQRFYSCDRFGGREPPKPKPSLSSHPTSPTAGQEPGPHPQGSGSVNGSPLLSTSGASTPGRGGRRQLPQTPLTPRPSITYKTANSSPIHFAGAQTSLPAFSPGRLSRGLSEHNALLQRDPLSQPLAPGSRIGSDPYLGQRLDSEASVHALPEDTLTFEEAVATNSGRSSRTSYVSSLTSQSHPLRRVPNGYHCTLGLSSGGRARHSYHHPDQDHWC
T4 sequence (Q02410 whole entry): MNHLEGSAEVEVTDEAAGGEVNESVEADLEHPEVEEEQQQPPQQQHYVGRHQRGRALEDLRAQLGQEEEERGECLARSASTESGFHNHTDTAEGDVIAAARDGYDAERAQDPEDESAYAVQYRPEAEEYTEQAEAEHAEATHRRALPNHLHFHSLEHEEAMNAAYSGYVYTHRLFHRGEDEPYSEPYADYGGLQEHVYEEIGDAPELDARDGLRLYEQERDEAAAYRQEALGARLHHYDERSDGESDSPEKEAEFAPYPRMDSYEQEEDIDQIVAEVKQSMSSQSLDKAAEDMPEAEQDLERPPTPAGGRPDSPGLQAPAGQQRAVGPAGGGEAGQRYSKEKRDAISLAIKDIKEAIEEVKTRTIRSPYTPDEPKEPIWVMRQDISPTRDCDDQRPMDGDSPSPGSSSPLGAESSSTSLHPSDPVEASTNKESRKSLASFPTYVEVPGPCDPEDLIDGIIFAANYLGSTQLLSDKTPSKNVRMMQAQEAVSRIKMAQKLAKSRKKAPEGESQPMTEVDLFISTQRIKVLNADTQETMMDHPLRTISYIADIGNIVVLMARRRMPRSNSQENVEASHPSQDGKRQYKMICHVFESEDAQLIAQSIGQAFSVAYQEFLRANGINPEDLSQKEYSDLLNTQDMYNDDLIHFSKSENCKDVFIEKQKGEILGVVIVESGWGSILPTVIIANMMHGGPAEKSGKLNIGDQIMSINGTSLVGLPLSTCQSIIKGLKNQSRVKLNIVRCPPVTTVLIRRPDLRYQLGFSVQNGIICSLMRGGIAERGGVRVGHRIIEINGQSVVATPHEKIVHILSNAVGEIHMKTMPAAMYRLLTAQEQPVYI

[10] = molecular target: T4, Voltage-gated N-type calcium channel alpha-1B subunit/Amyloid beta A4 precursor protein-binding family A member 1; assay type: protein assay; remark: listed apart in the source
[11] = molecular target: T5, Carboxy-terminal domain RNA polymerase II polypeptide A small phosphatase 1 (Homo sapiens, UniProt Q9GZU7); test: inhibitors of CTDSP1, concentration-response testing, biochemical assay, absorbance-based, actives from ultra-high-throughput screening (AID 540297); assay type: functional
T5 sequence (Q9GZU7 whole entry): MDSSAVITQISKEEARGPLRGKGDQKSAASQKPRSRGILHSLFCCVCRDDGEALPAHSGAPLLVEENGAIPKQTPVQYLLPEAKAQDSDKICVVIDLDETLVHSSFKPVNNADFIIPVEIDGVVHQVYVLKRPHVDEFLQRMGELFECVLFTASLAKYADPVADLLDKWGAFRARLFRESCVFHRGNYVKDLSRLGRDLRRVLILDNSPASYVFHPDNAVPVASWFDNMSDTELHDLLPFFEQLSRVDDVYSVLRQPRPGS

[12] = molecular target: DNA (cytosine-5)-methyltransferase 1 (Homo sapiens, UniProt P26358); test: DNMT1 methyltransferase inhibitors, confirmation, biochemical, fluorescent molecular beacon (AID 602386); assay type: functional
[13] = molecular target: T6, Small ubiquitin-related modifier 1 (Homo sapiens, UniProt P63165); test: inhibitors of SUMO1 peptide binding, dose response, biochemical, fluorescence polarization, uHTS hits (AID 624382); assay type: functional; conditions: read-out: IC50_Mean
T6 sequence (P63165 whole entry): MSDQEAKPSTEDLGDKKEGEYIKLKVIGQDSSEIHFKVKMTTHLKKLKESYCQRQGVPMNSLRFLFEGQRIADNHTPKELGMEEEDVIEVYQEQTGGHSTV

[14] = molecular target: T6, Small ubiquitin-related modifier 1; test: inhibitors of SUMO1 partner interactions, dose response, biochemical, FRET (AID 624383); assay type: functional; conditions: read-out: IC50_Mean
[15] = molecular target: T7, Low molecular weight phosphotyrosine protein phosphatase (Homo sapiens, UniProt P24666); assay type: functional; conditions: read-out: IC50_Mean;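 note: Dose-response confirmation assay measuring inhibition of LMPTP enzyme activity by fluorescence intensity read-out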
T7 sequence (P24666 whole entry): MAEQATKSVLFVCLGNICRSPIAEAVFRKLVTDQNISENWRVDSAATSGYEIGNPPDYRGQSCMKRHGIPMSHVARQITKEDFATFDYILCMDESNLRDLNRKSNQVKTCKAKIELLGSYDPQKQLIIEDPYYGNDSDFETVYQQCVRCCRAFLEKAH

[16] = molecular target: T8, Tyrosine-protein phosphatase non-receptor type 22 (Homo sapiens, UniProt Q9Y2R2); test: LYP phosphatase inhibition for selectivity, dose response, selectivity assay for LMPTP inhibitor project, biochemical, fluorescence, LYP catalytic domain (AID 652006); assay type: functional; conditions: read-out: IC50_Mean
T8 sequence (Q9Y2R2 whole entry): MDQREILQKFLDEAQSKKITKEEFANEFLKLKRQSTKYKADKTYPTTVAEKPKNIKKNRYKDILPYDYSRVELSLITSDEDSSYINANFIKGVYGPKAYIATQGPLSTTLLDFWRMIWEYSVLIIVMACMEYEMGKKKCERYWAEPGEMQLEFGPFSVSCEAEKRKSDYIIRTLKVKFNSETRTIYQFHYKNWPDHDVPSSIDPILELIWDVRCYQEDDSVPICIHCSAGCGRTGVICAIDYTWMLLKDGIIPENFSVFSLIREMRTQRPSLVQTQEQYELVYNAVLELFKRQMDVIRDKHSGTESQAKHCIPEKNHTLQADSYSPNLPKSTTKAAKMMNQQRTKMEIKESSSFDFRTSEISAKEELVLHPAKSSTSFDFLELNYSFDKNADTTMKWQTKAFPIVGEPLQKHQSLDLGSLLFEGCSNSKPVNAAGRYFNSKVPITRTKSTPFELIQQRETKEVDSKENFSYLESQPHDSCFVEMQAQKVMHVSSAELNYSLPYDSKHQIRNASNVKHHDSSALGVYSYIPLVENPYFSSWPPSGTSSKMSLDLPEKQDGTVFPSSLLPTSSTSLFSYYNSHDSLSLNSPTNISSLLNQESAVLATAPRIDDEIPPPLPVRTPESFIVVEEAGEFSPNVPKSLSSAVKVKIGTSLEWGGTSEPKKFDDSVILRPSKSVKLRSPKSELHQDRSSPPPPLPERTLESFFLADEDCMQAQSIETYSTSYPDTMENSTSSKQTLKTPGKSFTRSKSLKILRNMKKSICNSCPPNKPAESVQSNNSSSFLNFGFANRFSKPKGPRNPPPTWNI

Chain of Melanocortin receptor 4 (P32245 whole entry): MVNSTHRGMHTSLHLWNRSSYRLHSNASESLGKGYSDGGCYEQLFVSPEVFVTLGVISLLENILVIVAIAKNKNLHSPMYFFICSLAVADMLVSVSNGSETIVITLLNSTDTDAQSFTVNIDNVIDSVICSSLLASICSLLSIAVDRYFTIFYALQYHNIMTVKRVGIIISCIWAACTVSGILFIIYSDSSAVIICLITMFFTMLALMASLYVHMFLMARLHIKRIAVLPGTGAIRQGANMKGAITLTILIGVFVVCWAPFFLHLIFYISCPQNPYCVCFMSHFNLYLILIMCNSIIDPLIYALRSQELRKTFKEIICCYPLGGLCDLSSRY

## CC(C)(C)OC(=O)NCc1ccc(NC(=O)c2nc[nH]c2C(=O)N[C@@H](Cc2ccccc2)C(=O)OCc2ccccc2)cc1
Melanocortin receptor 4
  IC50: > 64.6 µM (inactive)

## COc1ccc(C(=O)NCCC2=CCCCC2)cc1OC1CCN(C(C)C)CC1
[1]
  IC50: 2.63 µM (active)
[2]
  IC50: 3.16 µM (active)
[3]
  IC50: 16 µM (active)

## Nc1nccc(-c2ccc(-n3cnc4ccccc43)cc2)n1
Interleukin-8
  IC50: 10.2 µM (inactive)

## Cc1[nH]c(SCc2ccccc2Cl)nc(=O)c1C
[4]
  CC50: > 100 µM (active)
[5]
  CC50: > 100 µM (active)

## N#CC(c1cccnc1)c1c(Cl)cnn(Cc2cccc3ccccc23)c1=O (stereo not drawn)
[6]
  IC50: 0.975 µM (active)
[7]
  IC50: 4.56 µM (active)

## CC(C)(C)OC(=O)NCc1ccc(NC(=O)c2[nH]cnc2C(=O)N[C@@H](Cc2ccccc2)C(=O)OCc2ccccc2)cc1
[8]
  IC50: > 64.6 µM (inactive)

## CCOC(=O)c1cc(-c2ccc(N3CCOCC3)cc2)nn1-c1ccccc1C(=O)O
[9]
  IC50: 5.98 µM (active)
[10]
  IC50: > 50 µM (inactive)
[11]
  IC50: 5.98 µM (active)
[12]
  IC50: 6.99 µM (active)
[13]
  IC50: > 66.6 µM (inactive)
[14]
  IC50: 1.51 µM (active)
[15]
  IC50: 12.3 µM (active)
[16]
  IC50: 8.42 µM (active)

From ChEMBL document CHEMBL1201862, “PubChem BioAssay data set” (2004)
